Data from PubChem BioAssay (NCI).
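96-well plates; 48 h exposure; 5 concentrations. Endpoints by linear interpolation between flanking doses. Not reached: highest tested concentration assigned. TGI marks complete inhibition of growth.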

Legend:
Experiment in all cases: NCI tumour cell line growth inhibition, 48 h
PC-3 prostate = tested on: PC-3 prostate
NCI-H226 lung = tested on: NCI-H226 lung
SW-620 colon = tested on: SW-620 colon
DU-145 prostate = tested on: DU-145 prostate
M14 melanoma = tested on: M14 melanoma
786-0 renal = tested on: 786-0 renal
U251 CNS = tested on: U251 CNS
NCI-H23 lung = tested on: NCI-H23 lung
MCF7 breast = tested on: MCF7 breast
SF-295 CNS = tested on: SF-295 CNS

CC(C)c1ccc(/C=C2\CSCC3=C2N=C2SCC(=O)N2C3c2ccc(C(C)C)cc2)cc1 (stereo not given)
TGI (PC-3 prostate): > 100 µM | TGI (NCI-H226 lung): > 100 µM | TGI (SW-620 colon): > 100 µM | TGI (DU-145 prostate): > 100 µM | TGI (M14 melanoma): > 100 µM | TGI (786-0 renal): > 100 µM | TGI (U251 CNS): > 100 µM | TGI (NCI-H23 lung): > 100 µM | TGI (MCF7 breast): > 100 µM | TGI (SF-295 CNS): > 100 µM

CCNC(=S)N/N=C(\C)c1cccc(C)n1
TGI (PC-3 prostate): > 100 µM | TGI (NCI-H226 lung): 47.9 µM | TGI (SW-620 colon): > 100 µM | TGI (DU-145 prostate): 73.1 µM | TGI (M14 melanoma): 26 µM | TGI (786-0 renal): > 100 µM | TGI (U251 CNS): 83.2 µM | TGI (NCI-H23 lung): > 100 µM | TGI (MCF7 breast): > 100 µM | TGI (SF-295 CNS): > 100 µM

NN/C(=N\S(=O)(=O)c1ccc(S(=O)(=O)c2ccccc2)s1)Nc1ccc(Cl)cc1
TGI (PC-3 prostate): > 100 µM | TGI (NCI-H226 lung): > 100 µM | TGI (SW-620 colon): > 100 µM | TGI (DU-145 prostate): 76.5 µM | TGI (M14 melanoma): 40.1 µM | TGI (786-0 renal): 54.2 µM | TGI (U251 CNS): > 100 µM | TGI (NCI-H23 lung): 80 µM | TGI (MCF7 breast): > 100 µM | TGI (SF-295 CNS): > 100 µM

O=S(=O)(O)c1ccc2c(N=Nc3ccc(Sc4ccc(N=Nc5c(O)ccc6cc(S(=O)(=O)O)ccc56)cc4)cc3)c(O)ccc2c1
TGI (PC-3 prostate): > 100 µM | TGI (NCI-H226 lung): > 100 µM | TGI (SW-620 colon): > 100 µM | TGI (DU-145 prostate): > 100 µM | TGI (M14 melanoma): > 100 µM | TGI (786-0 renal): > 100 µM | TGI (U251 CNS): > 100 µM | TGI (NCI-H23 lung): > 100 µM | TGI (MCF7 breast): > 100 µM | TGI (SF-295 CNS): > 100 µM

COc1ccc2c(c1)CCC/C2=N\NS(=O)(=O)c1c(C)cc(C)cc1C
TGI (PC-3 prostate): > 100 µM | TGI (NCI-H226 lung): 59.8 µM | TGI (SW-620 colon): 90.8 µM | TGI (DU-145 prostate): 68.1 µM | TGI (M14 melanoma): > 100 µM | TGI (786-0 renal): 37.8 µM | TGI (U251 CNS): > 100 µM | TGI (NCI-H23 lung): 72.4 µM | TGI (MCF7 breast): > 100 µM | TGI (SF-295 CNS): 94.6 µM

O=C(Nc1ccc2ccccc2c1)c1cc2cc(CCl)ccc2oc1=O
TGI (PC-3 prostate): > 100 µM | TGI (NCI-H226 lung): > 100 µM | TGI (SW-620 colon): > 100 µM | TGI (DU-145 prostate): > 100 µM | TGI (M14 melanoma): > 100 µM | TGI (786-0 renal): > 100 µM | TGI (U251 CNS): > 100 µM | TGI (NCI-H23 lung): > 100 µM | TGI (MCF7 breast): > 100 µM | TGI (SF-295 CNS): > 100 µM

CC(C)NC(=O)OCc1c(COC(=O)NC(C)C)c(-c2cc[n+](COC(=O)C3CCCCC3)cc2)n2c1CCC2
TGI (PC-3 prostate): > 100 µM | TGI (NCI-H226 lung): > 100 µM | TGI (SW-620 colon): > 100 µM | TGI (DU-145 prostate): > 100 µM | TGI (M14 melanoma): > 100 µM | TGI (786-0 renal): > 100 µM | TGI (U251 CNS): > 100 µM | TGI (NCI-H23 lung): > 100 µM | TGI (MCF7 breast): > 100 µM | TGI (SF-295 CNS): > 100 µM

O=c1cc(N2CCCC2)[nH]c(=O)n1-c1ccc(Cl)cc1
TGI (PC-3 prostate): > 100 µM | TGI (NCI-H226 lung): > 100 µM | TGI (SW-620 colon): > 100 µM | TGI (DU-145 prostate): > 100 µM | TGI (M14 melanoma): > 100 µM | TGI (786-0 renal): > 100 µM | TGI (U251 CNS): > 100 µM | TGI (NCI-H23 lung): > 100 µM | TGI (MCF7 breast): > 100 µM | TGI (SF-295 CNS): > 100 µM

CC(C)C(NC(=O)C(Cc1ccccc1)NC(=O)[C@H]1CCC[C@H]1NC(=O)C(Cc1ccc(OC(C)(C)C)cc1)NC(=O)OC(C)(C)C)C(N)=O (stereo not given in full)
TGI (PC-3 prostate): 54 µM | TGI (NCI-H226 lung): 37.8 µM | TGI (SW-620 colon): 51.3 µM | TGI (DU-145 prostate): > 100 µM | TGI (M14 melanoma): 33.6 µM | TGI (786-0 renal): > 100 µM | TGI (U251 CNS): 28.3 µM | TGI (NCI-H23 lung): 35.7 µM | TGI (MCF7 breast): 35.9 µM | TGI (SF-295 CNS): 34.5 µM

Cc1ccc2c(c1C)C(=O)/C(=C/c1cccc(C)c1C(=O)O)C2
TGI (PC-3 prostate): > 100 µM | TGI (NCI-H226 lung): > 100 µM | TGI (SW-620 colon): > 100 µM | TGI (DU-145 prostate): > 100 µM | TGI (M14 melanoma): > 100 µM | TGI (786-0 renal): > 100 µM | TGI (U251 CNS): > 100 µM | TGI (NCI-H23 lung): > 100 µM | TGI (MCF7 breast): > 65.2 µM | TGI (SF-295 CNS): > 100 µM

CC1C2(C)OCC(C#N)(C(=N)O2)C1(C#N)C#N (stereo not given)
TGI (PC-3 prostate): 83.3 µM | TGI (NCI-H226 lung): > 100 µM | TGI (SW-620 colon): > 100 µM | TGI (DU-145 prostate): 74.3 µM | TGI (M14 melanoma): 39.2 µM | TGI (786-0 renal): 55.3 µM | TGI (U251 CNS): 40.4 µM | TGI (NCI-H23 lung): 86.9 µM | TGI (MCF7 breast): 52.3 µM | TGI (SF-295 CNS): > 100 µM

COCCN1C(=O)C2c3[nH]c4ccccc4c3C3CCC(C(C)(C)C)CC3C2C1=O (stereo not given)
TGI (PC-3 prostate): 29.1 µM | TGI (NCI-H226 lung): 39 µM | TGI (SW-620 colon): 35.5 µM | TGI (DU-145 prostate): 37.1 µM | TGI (M14 melanoma): 38.1 µM | TGI (786-0 renal): 31.5 µM | TGI (U251 CNS): 28.9 µM | TGI (NCI-H23 lung): 57.3 µM | TGI (MCF7 breast): 43.3 µM | TGI (SF-295 CNS): 34.5 µM

COc1ccc(-n2cnc3c(NC(Cc4ccccc4)C(=O)O)ncnc32)cc1 (stereo not given)
TGI (PC-3 prostate): > 100 µM | TGI (NCI-H226 lung): > 100 µM | TGI (SW-620 colon): > 100 µM | TGI (DU-145 prostate): > 100 µM | TGI (M14 melanoma): > 100 µM | TGI (786-0 renal): > 100 µM | TGI (U251 CNS): > 100 µM | TGI (NCI-H23 lung): > 100 µM | TGI (MCF7 breast): > 100 µM | TGI (SF-295 CNS): > 100 µM

COC(=O)C(NC(=O)OC(C)(C)C)P(=O)(OC)OC (stereo not given)
TGI (PC-3 prostate): > 100 µM | TGI (NCI-H226 lung): > 100 µM | TGI (SW-620 colon): > 100 µM | TGI (DU-145 prostate): > 100 µM | TGI (M14 melanoma): > 100 µM | TGI (786-0 renal): > 100 µM | TGI (U251 CNS): > 100 µM | TGI (NCI-H23 lung): > 100 µM | TGI (MCF7 breast): > 100 µM | TGI (SF-295 CNS): > 100 µM

Cc1cc(=O)oc2c(CNC(CC(C)C)C(=O)O)c(O)ccc12 (stereo not given)
TGI (PC-3 prostate): > 100 µM | TGI (NCI-H226 lung): > 100 µM | TGI (SW-620 colon): > 100 µM | TGI (DU-145 prostate): > 100 µM | TGI (M14 melanoma): > 100 µM | TGI (786-0 renal): > 100 µM | TGI (U251 CNS): > 100 µM | TGI (NCI-H23 lung): > 100 µM | TGI (MCF7 breast): > 100 µM | TGI (SF-295 CNS): > 100 µM

CC(C)=NOC(=O)Nc1cccc2c1OCO2
TGI (PC-3 prostate): > 100 µM | TGI (NCI-H226 lung): > 100 µM | TGI (SW-620 colon): > 100 µM | TGI (DU-145 prostate): > 100 µM | TGI (M14 melanoma): > 100 µM | TGI (786-0 renal): > 100 µM | TGI (U251 CNS): > 100 µM | TGI (NCI-H23 lung): > 100 µM | TGI (MCF7 breast): > 100 µM | TGI (SF-295 CNS): > 100 µM

N#Cc1nc(/C=C/c2cccnc2)oc1N
TGI (PC-3 prostate): > 100 µM | TGI (NCI-H226 lung): > 100 µM | TGI (SW-620 colon): > 100 µM | TGI (DU-145 prostate): > 100 µM | TGI (M14 melanoma): > 100 µM | TGI (786-0 renal): > 100 µM | TGI (U251 CNS): > 100 µM | TGI (NCI-H23 lung): > 100 µM | TGI (MCF7 breast): > 100 µM | TGI (SF-295 CNS): > 100 µM

COC(=O)c1ccc(NCC2=C(Br)C(=O)C=CC2=O)cc1Cl
TGI (PC-3 prostate): 43.8 µM | TGI (NCI-H226 lung): > 100 µM | TGI (SW-620 colon): 30.8 µM | TGI (DU-145 prostate): 42.5 µM | TGI (M14 melanoma): 32.1 µM | TGI (786-0 renal): 26.1 µM | TGI (U251 CNS): 43.6 µM | TGI (NCI-H23 lung): 45.8 µM | TGI (MCF7 breast): 30.9 µM | TGI (SF-295 CNS): > 100 µM

COc1cc2c3c(cc(Cl)nc3c1OC)C(O)(CC(=O)c1ccccc1)C(=O)N2 (stereo not given)
TGI (PC-3 prostate): 29.2 µM | TGI (NCI-H226 lung): 41.3 µM | TGI (SW-620 colon): > 44.7 µM | TGI (DU-145 prostate): 30.1 µM | TGI (M14 melanoma): 30.5 µM | TGI (786-0 renal): 22 µM | TGI (U251 CNS): 32.7 µM | TGI (NCI-H23 lung): 36.9 µM | TGI (MCF7 breast): 4.02 µM | TGI (SF-295 CNS): 32.8 µM

O=C(NCCCCCN1CCC2(CCCCC2)CC1)C(C1CCCCC1)C1CCCCC1
TGI (PC-3 prostate): 8.17 µM | TGI (NCI-H226 lung): 11.8 µM | TGI (SW-620 colon): 8.05 µM | TGI (DU-145 prostate): 9.75 µM | TGI (M14 melanoma): 3.23 µM | TGI (786-0 renal): 9.65 µM | TGI (U251 CNS): 8.53 µM | TGI (NCI-H23 lung): 9.89 µM | TGI (MCF7 breast): 5.37 µM | TGI (SF-295 CNS): 3.56 µM
